Reference: article PMC6407587, “Inhibition potential of phenolic constituents from the aerial parts of Tetrastigma hemsleyanum against soluble epoxide hydrolase and nitric oxide synthase” (Journal of Enzyme Inhibition and Medicinal Chemistry, 2019)

How the values were obtained:
sEH [1] = target: T1, sEH (Homo sapiens, UniProt P34913); assay: sEH binding mechanism, Dixon and Lineweaver-Burk plots at different substrate and inhibitor concentrations; type: biochemical; details: for Type of sEH inhibition: Dixon / Lineweaver-Burk plots
T1 sequence (P34913 1-555): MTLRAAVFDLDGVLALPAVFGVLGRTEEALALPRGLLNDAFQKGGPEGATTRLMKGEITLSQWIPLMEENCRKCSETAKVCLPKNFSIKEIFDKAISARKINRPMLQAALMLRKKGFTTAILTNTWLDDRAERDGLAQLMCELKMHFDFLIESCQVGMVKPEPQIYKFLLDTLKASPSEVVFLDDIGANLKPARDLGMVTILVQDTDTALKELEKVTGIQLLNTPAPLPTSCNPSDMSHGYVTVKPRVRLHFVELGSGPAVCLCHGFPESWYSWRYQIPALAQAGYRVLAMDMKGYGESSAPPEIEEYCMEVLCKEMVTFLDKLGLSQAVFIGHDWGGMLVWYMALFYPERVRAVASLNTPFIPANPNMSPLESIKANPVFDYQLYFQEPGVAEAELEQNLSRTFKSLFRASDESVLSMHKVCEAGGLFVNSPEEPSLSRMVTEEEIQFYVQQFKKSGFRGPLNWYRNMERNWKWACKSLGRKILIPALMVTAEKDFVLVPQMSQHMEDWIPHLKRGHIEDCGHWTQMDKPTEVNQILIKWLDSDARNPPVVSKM

sEH [2] = target: T1, sEH; assay: sEH inhibitory activity, fluorescence assay with PHOME substrate; type: biochemical; details: for IC50: PHOME substrate, dose-dependent response curve
[3] = test system: LPS-induced NO production in macrophage RAW 264.7 cells (iNOS); assay: Inhibition of LPS-induced NO production in RAW 264.7 macrophages (Griess reaction, measure of iNOS activity); type: cell-based; details: for Inhibition of NO production at 50 µM (%) / inhibition at 50 µM: 50 µM compound, LPS-stimulated RAW264.7 cells; for inhibition at 50 µM: read-out: Inhibition of NO production at 50 µM (%);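 as to all read-outs here: cells pretreated with compound for 2 h, then stimulated 24 h with LPS at 500 ng/ml, supernatant nitrite quantified by absorbance at 550 nm against a nitrite standard curve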
X-box binding protein 1 = test system: X-box binding protein 1; design: method as in PMID 26475664; details: related to ulcerative colitis; cited from earlier work
[4] = 100 µM compound, tested three times
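For Cytotoxicity in RAW 264.7 cells (MTT) in this document: viability gauged by mitochondrial reductase turning MTT into formazan, optical density read at 570 nm, with untreated control cells set as 100% viability.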

| Type of sEH inhibition (sEH [1]) | Inhibition on sEH at 100 µM (%) (sEH [2]; [4]) | IC50 (sEH [2]) [µM] | sEH inhibitory activity (in words) (sEH [2]) | inhibition at 100 µM (sEH [2]; [4]) [%] | Structure (SMILES) | Cytotoxicity in RAW 264.7 cells (MTT) (RAW 264.7 cells) | Inhibition of NO production at 50 µM (%) [3] [%] | Transcriptional activation of X-box binding protein 1 (X-box binding protein 1) | inhibition at 50 µM ([3]; Mus musculus) [%] | Ki (sEH [1]; Dixon plots) [µM] | IC50 ([3]; Mus musculus, RAW264.7, LPS-stimulated RAW264.7 cells, means ± SE, n = 3) [µM] |
| --- | --- | --- | --- | --- | --- | --- | --- | --- | --- | --- | --- |
| non-competitive | 95.2 ± 0.2 | 6.2 ± 0.1 | – | – | C[C@@H]1O[C@@H](OC[C@H]2O[C@@H](Oc3c(-c4ccc(O)c(O)c4)oc4cc(O)cc(O)c4c3=O)[C@H](O)[C@@H](O)[C@@H]2O)[C@H](O)[C@H](O)[C@H]1O [Compound 16] | did not exhibit significant cytotoxicity | 26.2 | – | – | – | – |
| non-competitive | 83.8 ± 3.7 | 9.5 ± 0.1 | – | – | CC(=O)O[C@H]1[C@H](OC[C@H]2O[C@@H](Oc3c(-c4ccc(O)c(O)c4)oc4cc(O)cc(O)c4c3=O)[C@H](O)[C@@H](O)[C@@H]2O)O[C@@H](C)[C@H](O)[C@H]1O [Compound 17] | did not exhibit significant cytotoxicity | 29.9 | – | – | – | – |
| – | – | – | weak inhibitory activity | 52.3 ± 2.6 | COc1cc(C2c3cc(O)c(OC)cc3CC(CO)C2COC2OC(C)C(O)C(O)C2O)ccc1O (centres unmarked) [Compound 18] | did not exhibit significant cytotoxicity | – | remarkable transcriptional activation | 32.1 | – | – |

| Structure (SMILES) | Type of sEH inhibition (sEH [1]) | Inhibition on sEH at 100 µM (%) (sEH [2]; [4]) | IC50 (sEH [2]) [µM] | sEH inhibitory activity (in words) (sEH [2]) | inhibition at 100 µM (sEH [2]; [4]) [%] | Cytotoxicity in RAW 264.7 cells (MTT) (RAW 264.7 cells) | Inhibition of NO production at 50 µM (%) [3] [%] | Transcriptional activation of X-box binding protein 1 (X-box binding protein 1) | inhibition at 50 µM ([3]; Mus musculus) [%] | Ki (sEH [1]; Dixon plots) [µM] | IC50 ([3]; Mus musculus, RAW264.7, LPS-stimulated RAW264.7 cells, means ± SE, n = 3) [µM] |
| --- | --- | --- | --- | --- | --- | --- | --- | --- | --- | --- | --- |
| O=c1ccc2cc(O)c(O)cc2o1 [Compound 19] | – | – | 4.5 ± 0.2 | – | – | did not exhibit significant cytotoxicity | – | – | 50.1 | 10.2 | 47.3 ± 6.9 |
